{"source": "patent US12686690B2", "about": "“Macrocyclic urea orexin receptor agonists” (Merck Sharp & Dohme LLC, priority 2020, dated 2026)", "molecular_target": "T1, hOX2R (Homo sapiens, UniProt O43614)", "T1 construct": "expressed in transfected cells; host or cells: CHO cells (G418 selection)", "T1 sequence (O43614 1-444)": "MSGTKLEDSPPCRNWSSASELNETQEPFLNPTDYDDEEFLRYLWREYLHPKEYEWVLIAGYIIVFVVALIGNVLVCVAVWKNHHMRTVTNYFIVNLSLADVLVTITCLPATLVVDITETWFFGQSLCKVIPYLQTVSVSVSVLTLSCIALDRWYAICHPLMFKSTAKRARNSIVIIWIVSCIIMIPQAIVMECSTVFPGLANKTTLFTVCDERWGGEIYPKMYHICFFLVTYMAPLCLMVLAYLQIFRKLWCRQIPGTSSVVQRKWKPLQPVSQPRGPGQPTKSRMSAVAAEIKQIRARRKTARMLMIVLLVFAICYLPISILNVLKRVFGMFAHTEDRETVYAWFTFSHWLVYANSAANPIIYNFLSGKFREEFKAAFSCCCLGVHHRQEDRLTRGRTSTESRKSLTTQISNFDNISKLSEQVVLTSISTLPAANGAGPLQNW", "assay": "hOX2R IPone assay (orexin receptor agonism)", "type": "cell-based", "conditions": "IPone readout; for hOX2R_Ipone max %act: maximal activation; for pEC50: orexin receptor agonist, read-out: hOX2R_IPone EC50", "note": "pEC50: −log10 of the molar value."}
{"smiles": "CCN1C(=O)NC(C(C)OC)CCCCCOc2nc(cn3ccnc23)-c2cc(ncc2OC)[C@H]1C", "note": "(stereo partly drawn) [Example 191, (3R,E)-4-ethyl-25-methoxy-7-(1-methoxyethyl)-3-methyl-13-oxa-4,6-diaza-1(6,8)-imidazo[1,2-a]pyrazina-2(4,2)-pyridinacyclotridecaphan-5-one]", "values": [{"measurement": "hOX2R_Ipone max %act", "value": 102.3, "unit": "%"}, {"measurement": "pEC50", "value": 8.76}]}
{"smiles": "CCN1C(=O)NC(C2CC2(F)F)CCCCCOc2nc(cn3ccnc23)-c2cc(ncc2OC)[C@H]1C", "note": "(stereo partly drawn) [Example 192, (3R,E)-7-(2,2-difluorocyclopropyl)-4-ethyl-25-methoxy-3-methyl-13-oxa-4,6-diaza-1(6,8)-imidazo[1,2-a]pyrazina-2(4,2)-pyridinacyclotri-decaphan-5-one]", "values": [{"measurement": "hOX2R_Ipone max %act", "value": 100.9, "unit": "%"}, {"measurement": "pEC50", "value": 9.34}]}
{"smiles": "CCN1C(=O)NC(C2CCCO2)CCCCCOc2nc(cn3ccnc23)-c2cc(ncc2OC)[C@H]1C", "note": "(stereo partly drawn) [Example 193, (3R,E)-4-ethyl-25-methoxy-3-methyl-7-(tetrahydrofuran-2-yl)-13-oxa-4,6-diaza-1(6,8)-imidazo[1,2-a]pyrazina-2(4,2)-pyridinacyclotri-decaphan-5-one]", "values": [{"measurement": "hOX2R_Ipone max %act", "value": 100.7, "unit": "%"}, {"measurement": "pEC50", "value": 8.92}]}
{"smiles": "CCN1C(=O)NC(CC#N)CCCCCOc2nc(cn3ccnc23)-c2cc(ncc2OC)[C@H]1C", "note": "(stereo partly drawn) [Example 194, 2-((3R,E)-4-ethyl-25-methoxy-3-methyl-5-oxo-13-oxa-4,6-diaza-1(6,8)-imidazo[1,2-a]pyrazina-2(4,2)-pyridinacyclotridecaphane-7-yl)acetonitrile]", "values": [{"measurement": "hOX2R_Ipone max %act", "value": 102.2, "unit": "%"}, {"measurement": "pEC50", "value": 8.92}]}
{"smiles": "CCN1C(=O)NC(C2CC(F)(F)C2)CCCCCOc2nc(cn3ccnc23)-c2cc(ncc2OC)[C@H]1C", "note": "(stereo partly drawn) [Example 195, (3R,E)-7-(3,3-difluorocyclobutyl)-4-ethyl-25-methoxy-3-methyl-13-oxa-4,6-diaza-1(6,8)-imidazo[1,2-a]pyrazina-2(4,2)-pyridinacyclotri-decaphan-5-one]", "values": [{"measurement": "hOX2R_Ipone max %act", "value": 101.4, "unit": "%"}, {"measurement": "pEC50", "value": 9.08}]}
{"smiles": "CCN1C(=O)NC(CCC#N)CCCCCOc2nc(cn3ccnc23)-c2cc(ncc2OC)[C@H]1C", "note": "(stereo partly drawn) [Example 196, 3-((3R,E)-4-ethyl-25-methoxy-3-methyl-5-oxo-13-oxa-4,6-diaza-1(6,8)-imidazo[1,2-a]pyrazina-2(4,2)-pyridinacyclotridecaphane-7-yl)propanenitrile]", "values": [{"measurement": "hOX2R_Ipone max %act", "value": 101.6, "unit": "%"}, {"measurement": "pEC50", "value": 9.36}]}
{"smiles": "CCN1C(=O)NC(CCC(F)F)CCCCCOc2nc(cn3ccnc23)-c2cc(ncc2C2CC2)[C@H]1C", "note": "(stereo partly drawn) [Example 197, (3R,E)-25-cyclopropyl-7-(3,3-difluoropropyl)-4-ethyl-3-methyl-13-oxa-4,6-diaza-1(6,8)-imidazo[1,2-a]pyrazina-2(4,2)-pyridina-cyclotridecaphan-5-one]", "values": [{"measurement": "hOX2R_Ipone max %act", "value": 105.4, "unit": "%"}, {"measurement": "pEC50", "value": 8.89}]}
{"smiles": "CCN1C(=O)NC(CCC(F)(F)F)CCCCCOc2nc(cn3ccnc23)-c2cc(ncc2Cl)[C@H]1C", "note": "(stereo partly drawn) [Example 198, (3R,E)-25-chloro-4-ethyl-3-methyl-7-(3,3,3-trifluoropropyl)-13-oxa-4,6-diaza-1(6,8)-imidazo[1,2-a]pyrazina-2(4,2)-pyridinacyclotri-decaphan-5-one]", "values": [{"measurement": "hOX2R_Ipone max %act", "value": 103.1, "unit": "%"}, {"measurement": "pEC50", "value": 9.24}]}
{"smiles": "CCN1C(=O)NC(COC)CCCCCOc2nc(cn3ccnc23)-c2cc(ncc2F)[C@H]1C", "note": "(stereo partly drawn) [Example 199, (3R,E)-4-ethyl-25-fluoro-7-(methoxymethyl)-3-methyl-13-oxa-4,6-diaza-1(6,8)-imidazo[1,2-a]pyrazina-2(4,2)-pyridinacyclotridecaphan-5-one]", "values": [{"measurement": "hOX2R_Ipone max %act", "value": 100.6, "unit": "%"}, {"measurement": "pEC50", "value": 8.37}]}
{"smiles": "CCN1C(=O)NC(CCC(C)(F)F)CCCCCOc2nc(nn3ccnc23)-c2cc(ncc2OC)[C@H]1C", "note": "(stereo partly drawn) [Example 200, (3R,E)-7-(3,3-difluorobutyl)-4-ethyl-25-methoxy-3-methyl-13-oxa-4,6-diaza-1(2,4)-imidazo[2,1-f][1,2,4]triazina-2(4,2)-pyridinacyclo-tridecaphan-5-one]", "values": [{"measurement": "hOX2R_Ipone max %act", "value": 99.5, "unit": "%"}, {"measurement": "pEC50", "value": 9.28}]}
{"smiles": "CCN1C(=O)NC(CCC(F)F)CCCCCOc2nc(cn3ncnc23)-c2cc(ncc2C)[C@H]1C", "note": "(stereo partly drawn) [Example 201, (3R,E)-7-(3,3-difluoropropyl)-4-ethyl-25,3-dimethyl-13-oxa-4,6-diaza-1(6,8)-[1,2,4]triazolo[1,5-a]pyrazina-2(4,2)-pyridina-cyclotridecaphan-5-one]", "values": [{"measurement": "hOX2R_Ipone max %act", "value": 101, "unit": "%"}, {"measurement": "pEC50", "value": 8.43}]}
{"smiles": "CCN1C(=O)NC(CCC(F)F)CCCCCOc2nc(nn3ccnc23)-c2cc(ncc2OC)[C@H]1C", "note": "(stereo partly drawn) [Example 202, (3R,E)-7-(3,3-difluoropropyl)-4-ethyl-25-methoxy-3-methyl-13-oxa-4,6-diaza-1(2,4)-imidazo[2,1-f][1,2,4]triazina-2(4,2)-pyridina-cyclotridecaphan-5-one]", "values": [{"measurement": "hOX2R_Ipone max %act", "value": 99.8, "unit": "%"}, {"measurement": "pEC50", "value": 8.77}]}
{"smiles": "CCN1C(=O)NC(CC23CC(C2)C3)CCCCCOc2nc(nn3ccnc23)-c2cc(ncc2OC)[C@H]1C", "note": "(stereo partly drawn) [Example 203, (3R,E)-7-(bicyclo[1.1.1]pentan-1-ylmethyl)-4-ethyl-25-methoxy-3-methyl-13-oxa-4,6-diaza-1(2,4)-imidazo[2,1-f][1,2,4]triazina-2(4,2)-pyridinacyclotridecaphan-5-one]", "values": [{"measurement": "hOX2R_Ipone max %act", "value": 100, "unit": "%"}, {"measurement": "pEC50", "value": 7.94}]}
{"smiles": "CCN1C(=O)NC(CCC(F)F)CCCCCOc2cc(nn3ccnc23)-c2cc(ncc2F)[C@H]1C", "note": "(stereo partly drawn) [Example 204, (3R,E)-7-(3,3-difluoropropyl)-4-ethyl-25-fluoro-3-methyl-13-oxa-4,6-diaza-1(6,8)-imidazo[1,2-b]pyridazina-2(4,2)-pyridina-cyclotridecaphan-5-one]", "values": [{"measurement": "hOX2R_Ipone max %act", "value": 100.5, "unit": "%"}, {"measurement": "pEC50", "value": 8.68}]}
{"smiles": "C[C@@H]1c2cc(c(F)cn2)-c2nc(c3nccn3n2)OCCCCCC(CCC(F)F)NC(=O)N1C1CC1", "note": "(stereo partly drawn) [Example 205, (3R,E)-4-cyclopropyl-7-(3,3-difluoropropyl)-25-fluoro-3-methyl-13-oxa-4,6-diaza-1(2,4)-imidazo[2,1-f] [1,2,4] triazina-2(4,2)-pyridinacyclo-tridecaphan-5-one]", "values": [{"measurement": "hOX2R_Ipone max %act", "value": 104.8, "unit": "%"}, {"measurement": "pEC50", "value": 8.62}]}
{"smiles": "CCN1C(=O)NC(CC2(C)CC2)CCCCCOc2nc(nn3ccnc23)-c2cc(ncc2OC)[C@H]1C", "note": "(stereo partly drawn) [Example 206, (3R,E)-4-ethyl-25-methoxy-3-methyl-7-((1-methylcyclo-propyl)methyl)-13-oxa-4,6-diaza-1(2,4)-imidazo[2,1-f] [1,2,4]triazina-2(4,2)-pyridina-cyclotridecaphan-5-one]", "values": [{"measurement": "hOX2R_Ipone max %act", "value": 107.8, "unit": "%"}, {"measurement": "pEC50", "value": 8.68}]}
{"smiles": "CCN1C(=O)NC(CC(C)(F)F)CCCCCOc2nc(nn3ccnc23)-c2cc(ncc2OC)[C@H]1C", "note": "(stereo partly drawn) [Example 207, (3R,E)-7-(2,2-difluoropropyl)-4-ethyl-25-methoxy-3-methyl-13-oxa-4,6-diaza-1(2,4)-imidazo[2,1-f][1,2,4]triazina-2(4,2)-pyridinacyclo-tridecaphan-5-one]", "values": [{"measurement": "hOX2R_Ipone max %act", "value": 104.7, "unit": "%"}, {"measurement": "pEC50", "value": 8.37}]}
{"smiles": "CCN1C(=O)NC(CCC(F)F)CCCCCOc2nc(cn3ccnc23)-c2cc(ncc2OC)[C@H]1C(F)(F)F", "note": "(stereo partly drawn) [Example 208, (3S,E)-7-(3,3-difluoropropyl)-4-ethyl-25-methoxy-3-(trifluoromethyl)-13-oxa-4,6-diaza-1(6,8)-imidazo[1,2-a]pyrazina-2(4,2)-pyridinacyclotridecaphan-5-one]", "values": [{"measurement": "hOX2R_Ipone max %act", "value": 101.8, "unit": "%"}, {"measurement": "pEC50", "value": 9.54}]}
{"smiles": "CCN1C(=O)N[C@@H](CCC(F)(F)F)CCCCCOc2nc(cn3ccnc23)C2=C(C3CC3)N=C(O2)[C@H]1C", "note": "[Example 211, (9R,13R,E)-14-Cyclopropyl-12-ethyl-13-methyl-9-(3,3,3-trifluoropropyl)-3-oxa-10,12-diaza-1(5,2)-oxazola-2(6,8)-imidazo[1,2-a]pyrazinacyclotridecaphan-11-one]", "values": [{"measurement": "hOX2R_Ipone max %act", "value": 99.83, "unit": "%"}, {"measurement": "pEC50", "value": 8.95}]}
{"smiles": "CCN1C(=O)NC(c2csc(C)n2)CCCCCOc2nc(cn3ccnc23)-c2cc(cnc2OC)C1C", "note": "[Example 215, (3R,E)-4-ethyl-22-methoxy-3-methyl-7-(2-methylthiazol-4-yl)-13-oxa-4,6-diaza-1(6,8)-imidazo[1,2-a]pyrazina-2(3,5)-pyridinacyclotridecaphan-5-one]", "values": [{"measurement": "hOX2R_Ipone max %act", "value": 104.9, "unit": "%"}, {"measurement": "pEC50", "value": 8.45}]}
{"smiles": "CCN1C(=O)NC(c2nnnn2C)CCCCCOc2nc(cn3ccnc23)-c2cc(ncc2OC)[C@H]1C", "note": "(stereo partly drawn) [Example 217, (3R,E)-4-ethyl-2^5-methoxy-3-methyl-7-(1-methyl-1H-tetrazol-5-yl)-13-oxa-4,6-diaza-1(6,8)-imidazo[1,2-a]pyrazina-2(4,2)-pyridinacyclotridecaphan-5-one]", "values": [{"measurement": "hOX2R_Ipone max %act", "value": 100.1, "unit": "%"}, {"measurement": "pEC50", "value": 9.01}]}
{"smiles": "CCN1C(=O)NC(c2nc(C)cs2)CCCCCOc2nc(cn3ccnc23)-c2cc(ncc2OC)[C@H]1C", "note": "(stereo partly drawn) [Example 218, (3R,E)-4-ethyl-2^5-methoxy-3-methyl-7-(4-methylthiazol-2-yl)-13-oxa-4,6-diaza-1(6,8)-imidazo[1,2-a]pyrazina-2(4,2)-pyridinacyclotridecaphan-5-one]", "values": [{"measurement": "hOX2R_Ipone max %act", "value": 102.4, "unit": "%"}, {"measurement": "pEC50", "value": 9.05}]}
{"smiles": "CCN1C(=O)NC(c2ncnn2C)CCCCCOc2nc(cn3ccnc23)-c2cc(ncc2OC)[C@H]1C", "note": "(stereo partly drawn) [Example 219, (3R,E)-4-ethyl-2^5-methoxy-3-methyl-7-(1-methyl-1H-1,2,4-triazol-5-yl)-13-oxa-4,6-diaza-1(6,8)-imidazo[1,2-a]pyrazina-2(4,2)-pyridinacyclotridecaphan-5-one]", "values": [{"measurement": "hOX2R_Ipone max %act", "value": 102.6, "unit": "%"}, {"measurement": "pEC50", "value": 7.43}]}
